ChEMBL document CHEMBL5576134, “Targeting Pancreatic Cancer with Novel Nicolaioidesin C Derivatives: Molecular Mechanism, In Vitro, and In Vivo Evaluations” (J Med Chem, 2024)
Activity calls are given as the source filed them. The rule behind the calls is not given here.

Experiments:
Mus musculus [1] = experiment: In-vivo modulation of PI3K/AKT/mTOR signalling pathway in human MIA PaCa-2 cells xenografted in BALB/c/Nu/Nu mouse assessed as downregulation of GRP78 level at 60 mg/kg, ip administered 5 times a week for 4 weeks in presence of gemcitabine by Western blot analysis; format: functional, organism-based
MIA PaCa-2 [2] = experiment: Preferential cytotoxicity against human MIA PaCa-2 cells in nutrient-deprived medium measured after 24 hrs by WST-8 cell counting analysis; format: functional
MIA PaCa-2 [3] = experiment: Antitumor activity against human MIA PaCa-2 cells xenografted in BALB/c/Nu/Nu mouse assessed as reduction in final tumor weight at 60 mg/kg, ip administered 5 times a week for 4 weeks in presence of gemcitabine (reference value: […]); format: functional
MIA PaCa-2 [4] = experiment: Antitumor activity against human MIA PaCa-2 cells xenografted in BALB/c/Nu/Nu mouse assessed as reduction in number of blood vessels in skin at 20 mg/kg, ip administered 5 times a week for 4 weeks; format: functional, organism-based
MIA PaCa-2 [5] = experiment: Antitumor activity against human MIA PaCa-2 cells xenografted in BALB/c/Nu/Nu mouse assessed as reduction in tumor volume at 20 mg/kg, ip administered 5 times a week for 4 weeks and measured on day 16; format: functional, organism-based; details: time 16.0 day
Mus musculus [6] = experiment: In-vivo modulation of PI3K/AKT/mTOR signalling pathway in human MIA PaCa-2 cells xenografted in BALB/c/Nu/Nu mouse assessed as downregulation of CHOP level at 60 mg/kg, ip administered 5 times a week for 4 weeks in presence of gemcitabine by Western blot analysis; format: functional, organism-based
MIA PaCa-2 [7] = experiment: Antitumor activity against human MIA PaCa-2 cells xenografted in BALB/c/Nu/Nu mouse assessed as reduction in tumor cell density at 60 mg/kg, ip administered 5 times a week for 4 weeks by H and E staining based analysis; format: functional, organism-based
MIA PaCa-2 [8] = experiment: Antimetastatic activity in human MIA PaCa-2 cells in DMEM media assessed as inhibition of cell migration at 10 uM incubated for 36 hrs relative to control (reference value: 30%); format: functional
MIA PaCa-2 [9] = experiment: Antimetastatic activity in human MIA PaCa-2 cells in DMEM media assessed as inhibition of cell migration at 10 uM incubated for 18 hrs relative to control (reference value: 64%); format: functional
MIA PaCa-2 [10] = experiment: Preferential cytotoxicity against human MIA PaCa-2 cells in nutrient-deprived medium assessed as alteration in cell morphology by measuring membrane leakage at 0.5 to 1 uM measured after 24 hrs by acridine orange and ethidium bromide dual fluorescent staining based microscopic analysis; format: functional; details: dose 0.5-1 µM
[11] = Toxicity in BALB/c/Nu/Nu mouse xenografted with human MIA PaCa-2 cells assessed as change in abdominal organs at 60 mg/kg, ip administered 5 times a week for 4 weeks; format: organism-based; details: in vivo, 672 h
MIA PaCa-2 [12] = experiment: Antitumor activity against human MIA PaCa-2 cells xenografted in BALB/c/Nu/Nu mouse assessed as tumor volume at 20 mg/kg, ip administered 5 times a week for 4 weeks and measured on day 32 (reference value: 1417 mm3); format: functional; details: time 32 day
MIA PaCa-2 [13] = experiment: Antimetastatic activity in human MIA PaCa-2 cells in DMEM media assessed as inhibition of colony formation incubated for 24 hrs by crystal violet staining-based assay; format: functional, cell-based; details: dose 5-20 µM
MIA PaCa-2 [14] = experiment: Preferential cytotoxicity against human MIA PaCa-2 cells in nutrient-deprived medium assessed as alteration in cell morphology by measuring membrane rupture at 0.5 to 1 uM measured after 24 hrs by acridine orange and ethidium bromide dual fluorescent staining based microscopic analysis; format: functional; details: dose 0.5-1 µM
[15] = Modulation of PI3K/AKT/mTOR signalling pathway in human MIA PaCa-2 cells in DMEM medium assessed as downregulation of AKT expression incubated for 24 hrs in presence of gemcitabine by Western blot analysis; format: cell-based; details: filed as modulator, dose 1-5 µM

For `CC(C)=CCCC1=CC[C@H](C(=O)c2c(O)cccc2O)[C@@H](c2cccc(F)c2F)C1` (relative stereo), the Activity (Mus musculus [1]) was “Active”, the PC50 (MIA PaCa-2 [2]) was 0.34 µM and the Activity (MIA PaCa-2 [3]) was 139 mg. The Activity (MIA PaCa-2 [4]) was “Active”, the Activity (MIA PaCa-2 [5]) was “Active” and the Activity (Mus musculus [6]) was “Active”. The Activity (MIA PaCa-2 [7]) was “Active”, the inhibition at 10 µM (MIA PaCa-2 [8]) was 77% and the inhibition at 10 µM (MIA PaCa-2 [9]) was 92%. For the same molecule, the Activity (MIA PaCa-2 [10]) was “Active”, the Activity [11] was “Non-Toxic” and the Activity (MIA PaCa-2 [12]) was 879 mm3. For the same molecule, the Activity (MIA PaCa-2 [13]) was “Dose-Dependent Effect”, the Activity (MIA PaCa-2 [14]) was “Active” and the Activity [15] was “Dose-Dependent Effect”.
